Reference: ChEMBL document CHEMBL3885861, “Open TG-GATES”

Organism: Rattus norvegicus
Assay: Open TG-GATES - Regimen: Daily Repeat
Format: toxicity, organism-based, Sprague-Dawley
Parameters: regimen Daily Repeat, gender Male, age 6 weeks
Conditions: in vivo, po, 60 mg/kg, route gavage, dose level Middle; for APTT / Bas / Eos / Fbg / Hb / Ht / Lym / MCH / MCHC / MCV / Mono / Neu / PT / Plat / RBC / Ret / WBC: tissue Blood; for KIDNEY_L / KIDNEY_R / KIDNEY_TOTAL: tissue Kidney; for LIVER: tissue Liver; for A/G / ALP / ALT / AST / BUN / CRE / Ca / Cl / DBIL / GLC / IP / K / LDH / Na / PL / RALB / TBIL / TC / TG / TP / gamma-GTP: tissue Plasma

CC(CN1c2ccccc2Sc2ccccc21)N(C)C (configuration not stated) [PROMETHAZINE]
TERMINAL_BW (72 h, time 3 day): 228.9 g | APTT (72 h, time 3 day): 22.4 s | Bas (72 h, time 3 day): 0% | Eos (72 h, time 3 day): 0.8% | Fbg (72 h, time 3 day): 300.8 mg/dL | Hb (72 h, time 3 day): 13.3 g/dL | Ht (72 h, time 3 day): 40.1% | Lym (72 h, time 3 day): 78.8% | MCH (72 h, time 3 day): 20.8 pg | MCHC (72 h, time 3 day): 33.1% | MCV (72 h, time 3 day): 62.8 fL | Mono (72 h, time 3 day): 2.4% | Neu (72 h, time 3 day): 17% | PT (72 h, time 3 day): 16.1 s | Plat (72 h, time 3 day): 121.6 x10_4/uL | RBC (72 h, time 3 day): 639.4 x10_4/ul | Ret (72 h, time 3 day): 6.1% | WBC (72 h, time 3 day): 113.7 x10_2/uL | KIDNEY_L (72 h, time 3 day): 1 g | KIDNEY_R (72 h, time 3 day): 1 g | KIDNEY_TOTAL (72 h, time 3 day): 2 g | LIVER (72 h, time 3 day): 11.7 g | A/G (72 h, time 3 day): 1.3 | ALP (72 h, time 3 day): 1638.6 IU/L | ALT (72 h, time 3 day): 45.8 IU/L | AST (72 h, time 3 day): 74.6 IU/L | BUN (72 h, time 3 day): 16.8 mg/dL | CRE (72 h, time 3 day): 0.2 mg/dL | Ca (72 h, time 3 day): 10.9 mg/dL | Cl (72 h, time 3 day): 106.6 meq/L | DBIL (72 h, time 3 day): 0.002 mg/dL | GLC (72 h, time 3 day): 184.8 mg/dL | IP (72 h, time 3 day): 7 mg/dL | K (72 h, time 3 day): 4.3 meq/L | LDH (72 h, time 3 day): 158.2 IU/L | Na (72 h, time 3 day): 142 meq/L | PL (72 h, time 3 day): 140.8 mg/dL | RALB (72 h, time 3 day): 3.1 g/dL | TBIL (72 h, time 3 day): 0.008 mg/dL | TC (72 h, time 3 day): 73.2 mg/dL | TG (72 h, time 3 day): 122.8 mg/dL | TP (72 h, time 3 day): 5.5 g/dL | gamma-GTP (72 h, time 3 day): 1.4 IU/L | TERMINAL_BW ([…], time 7 day): 255.8 g | TERMINAL_BW ([…], time 14 day): 294.2 g | TERMINAL_BW ([…], time 28 day): 366.5 g | APTT ([…], time 7 day): 23.8 s | Bas ([…], time 7 day): 0% | Eos ([…], time 7 day): 0.8% | Fbg ([…], time 7 day): 293.6 mg/dL | Hb ([…], time 7 day): 13.6 g/dL | Ht ([…], time 7 day): 41.2% | Lym ([…], time 7 day): 80.4% | MCH ([…], time 7 day): 20.2 pg | MCHC ([…], time 7 day): 33.1% | MCV ([…], time 7 day): 61.1 fL | Mono ([…], time 7 day): 2.8% | Neu ([…], time 7 day): 15.2% | PT ([…], time 7 day): 15.8 s | Plat ([…], time 7 day): 107.7 x10_4/uL | RBC ([…], time 7 day): 674.2 x10_4/ul | Ret ([…], time 7 day): 5.1% | WBC ([…], time 7 day): 158 x10_2/uL | APTT ([…], time 14 day): 25 s | Bas ([…], time 14 day): 0% | Eos ([…], time 14 day): 1% | Fbg ([…], time 14 day): 312.6 mg/dL | Hb ([…], time 14 day): 14.2 g/dL | Ht ([…], time 14 day): 41.7% | Lym ([…], time 14 day): 77.8% | MCH ([…], time 14 day): 20.1 pg | MCHC ([…], time 14 day): 34% | MCV ([…], time 14 day): 59.1 fL | Mono ([…], time 14 day): 2% | Neu ([…], time 14 day): 18.4% | PT ([…], time 14 day): 15.6 s | Plat ([…], time 14 day): 111.3 x10_4/uL | RBC ([…], time 14 day): 706.4 x10_4/ul | Ret ([…], time 14 day): 4.8% | WBC ([…], time 14 day): 120.7 x10_2/uL | APTT ([…], time 28 day): 25.7 s | Bas ([…], time 28 day): 0% | Eos ([…], time 28 day): 1% | Fbg ([…], time 28 day): 303.6 mg/dL | Hb ([…], time 28 day): 15.3 g/dL | Ht ([…], time 28 day): 43.8% | Lym ([…], time 28 day): 79.2% | MCH ([…], time 28 day): 19.6 pg | MCHC ([…], time 28 day): 34.9% | MCV ([…], time 28 day): 56.4 fL | Mono ([…], time 28 day): 1.8% | Neu ([…], time 28 day): 17.2% | PT ([…], time 28 day): 16.3 s | Plat ([…], time 28 day): 96 x10_4/uL | RBC ([…], time 28 day): 778.4 x10_4/ul | Ret ([…], time 28 day): 2.9% | WBC ([…], time 28 day): 96 x10_2/uL | KIDNEY_L ([…], time 7 day): 1.1 g | KIDNEY_R ([…], time 7 day): 1.1 g | KIDNEY_TOTAL ([…], time 7 day): 2.2 g | KIDNEY_L ([…], time 14 day): 1.2 g | KIDNEY_R ([…], time 14 day): 1.2 g | KIDNEY_TOTAL ([…], time 14 day): 2.4 g | KIDNEY_L ([…], time 28 day): 1.4 g | KIDNEY_R ([…], time 28 day): 1.4 g | KIDNEY_TOTAL ([…], time 28 day): 2.8 g | LIVER ([…], time 7 day): 13.5 g | LIVER ([…], time 14 day): 14.9 g | LIVER ([…], time 28 day): 17.3 g | A/G ([…], time 7 day): 1.2 | ALP ([…], time 7 day): 1458.6 IU/L | ALT ([…], time 7 day): 44 IU/L | AST ([…], time 7 day): 71 IU/L | BUN ([…], time 7 day): 20.6 mg/dL | CRE ([…], time 7 day): 0.2 mg/dL | Ca ([…], time 7 day): 10.7 mg/dL | Cl ([…], time 7 day): 106.2 meq/L | DBIL ([…], time 7 day): 0 mg/dL | GLC ([…], time 7 day): 181.2 mg/dL | IP ([…], time 7 day): 7 mg/dL | K ([…], time 7 day): 4.4 meq/L | LDH ([…], time 7 day): 143.4 IU/L | Na ([…], time 7 day): 141.8 meq/L | PL ([…], time 7 day): 144.4 mg/dL | RALB ([…], time 7 day): 3 g/dL | TBIL ([…], time 7 day): 0.006 mg/dL | TC ([…], time 7 day): 75.4 mg/dL | TG ([…], time 7 day): 106.2 mg/dL | TP ([…], time 7 day): 5.6 g/dL | gamma-GTP ([…], time 7 day): 2.2 IU/L | A/G ([…], time 14 day): 1.2 | ALP ([…], time 14 day): 1448 IU/L | ALT ([…], time 14 day): 46.6 IU/L | AST ([…], time 14 day): 72.2 IU/L | BUN ([…], time 14 day): 19 mg/dL | CRE ([…], time 14 day): 0.2 mg/dL | Ca ([…], time 14 day): 10.9 mg/dL | Cl ([…], time 14 day): 106 meq/L | DBIL ([…], time 14 day): 0 mg/dL | GLC ([…], time 14 day): 182.2 mg/dL | IP ([…], time 14 day): 6.9 mg/dL | K ([…], time 14 day): 4.1 meq/L | LDH ([…], time 14 day): 128.4 IU/L | Na ([…], time 14 day): 142.4 meq/L | PL ([…], time 14 day): 150.4 mg/dL | RALB ([…], time 14 day): 3.2 g/dL | TBIL ([…], time 14 day): 0.012 mg/dL | TC ([…], time 14 day): 76 mg/dL | TG ([…], time 14 day): 128.4 mg/dL | TP ([…], time 14 day): 5.9 g/dL | gamma-GTP ([…], time 14 day): 2.4 IU/L | A/G ([…], time 28 day): 1.1 | ALP ([…], time 28 day): 1017.8 IU/L | ALT ([…], time 28 day): 49.4 IU/L | AST ([…], time 28 day): 69 IU/L | BUN ([…], time 28 day): 18.8 mg/dL | CRE ([…], time 28 day): 0.2 mg/dL | Ca ([…], time 28 day): 10.8 mg/dL | Cl ([…], time 28 day): 104 meq/L | DBIL ([…], time 28 day): 0 mg/dL | GLC ([…], time 28 day): 185.6 mg/dL | IP ([…], time 28 day): 7 mg/dL | K ([…], time 28 day): 3.7 meq/L | LDH ([…], time 28 day): 158 IU/L | Na ([…], time 28 day): 143.2 meq/L | PL ([…], time 28 day): 152.4 mg/dL | RALB ([…], time 28 day): 3.3 g/dL | TBIL ([…], time 28 day): 0.026 mg/dL | TC ([…], time 28 day): 79 mg/dL | TG ([…], time 28 day): 105.2 mg/dL | TP ([…], time 28 day): 6.3 g/dL | gamma-GTP ([…], time 28 day): 2.2 IU/L
